Data as given in PMC5708649, “A novel Porphyromonas gingivalis enzyme: An atypical dipeptidyl peptidase III with an ARM repeat domain” (PLoS ONE, 2017).
Where a SMILES comes first, the peptide text is derived from it. Where no end group is shown, it is not given here. The star is where a group is joined. AMC = Cc1cc(=O)oc2cc(N*)ccc12; βNA = c1ccc2cc(N*)ccc2c1

Key:
[1] = target: E433A variant of PgDPP III (Porphyromonas gingivalis, UniProt Q7MX92, E433A); experiment: biochemical; type: binding
[2] = system: Full length PgDPP III (1–886 aa); type: biochemical, Porphyromonas gingivalis; settings: for kcat/Km: full length, pH 8.0, 100 μM CoCl2, enzyme 0.5–1 nM; for kcat/Km of PgDPP III, fold lower than human DPP III: human DPP III data ref 70
PgDPP III = experiment: Substrate specificity for PgDPP III, dipeptidyl-2NA substrates; type: biochemical, Porphyromonas gingivalis; settings: for substrate preference / hydrolysis rate (in words): dipeptidyl-2NA substrates; for Relative hydrolysis rate: standard colorimetric assay, 37°C, pH 8.0, 50 mM Tris-HCl (I = 0.01), 100 μM CoCl2, Arg-Arg-2NA listed as 100
Protocol: DPP III activity was determined by a standard colorimetric assay described previously using Arg-Arg-2-naphthylamide (Arg2-2NA) and Arg-Arg-7-amido-4-methylcoumarin (Arg2-AMC) as substrates, at 37°C and pH 8.0, in 50 mM Tris-HCl buffer (I = 0.01) containing 100 μM CoCl2. […] The kinetic parameters were determined from the initial reaction rates, using a nonlinear regression program (GraphPad Prism version 5.04; GraphPad, La Jolla, CA, USA).
Cloning, expression, and purification of the recombinant proteins was performed as described in the Materials and methods section. Enzyme activity was assayed using a set of synthetic dipeptide-2-naphthylamide substrates as described previously. Full-length PgDPP III and the DPP III fragment (a. acids 1–679) were purified to apparent homogeneity according to SDS-PAGE, with estimated molecular weights of 102000 and 78000, respectively, which was in agreement with their predicted molecular masses (Fig 1A). We cloned and attempted to express three C-terminal fragments of different sizes. Only one (amino acids 648–886) was detected on SDS-PAGE. However, it could not be purified as all expressed protein was in insoluble inclusion bodies. This problem was not solved by attempts to yield soluble protein by refolding from inclusion bodies.

[3] = system: DPP III fragment (1–679 aa); experiment: Kinetic analysis / specific activity of the DPP III fragment; type: biochemical, Porphyromonas gingivalis; settings: for kcat/Km: DPP III fragment, pH 8.0, 100 μM CoCl2, enzyme 40–100 nM; for kcat/Km / Km / kcat: 26°C; for Km / kcat: fluorimetric, pH 8.0 Tris-HCl (ionic strength 0.01M), 100 μM CoCl2, enzyme 40–100 nM, mean of at least two independent experiments ± SD
[4] = system: putative DPP III from P. gingivalis strain ATCC 33277; settings: recombinant protein of gene PGN_1645; cited from earlier work
Description: (§1) Dipeptidyl peptidases of P. gingivalis have been the subject of extensive research because these exopeptidases liberate dipeptides from the amino-end of their natural substrates, and P. gingivalis is known to utilize dipeptides preferentially, instead of free amino acids, as the source of energy. Until now, beside DPP IV, which is a proven virulence factor, three other DPPs were reported: DPP5, DPP7 and DPP11 [67–69]. They are all serine peptidases, localized in the periplasm, but differ in their substrate specificity.

[5] = system: gingipain null-mutant KDP136 cells; settings: compared to wild-type P. gingivalis ATCC 33277; cited from earlier work
Description: as §1

[6] = Arg2-2NA, yeast enzyme data ref 70
[7] = fluorimetric, 26°C, pH 8.0 Tris-HCl (ionic strength 0.01M), 100 μM CoCl2, enzyme 0.5–1 nM, mean of at least two independent experiments ± SD
[8] = DPP III fragment vs full length PgDPP III

E433A variant of PgDPP III, sequence (Q7MX92 whole entry E433A, the tested form may be a part): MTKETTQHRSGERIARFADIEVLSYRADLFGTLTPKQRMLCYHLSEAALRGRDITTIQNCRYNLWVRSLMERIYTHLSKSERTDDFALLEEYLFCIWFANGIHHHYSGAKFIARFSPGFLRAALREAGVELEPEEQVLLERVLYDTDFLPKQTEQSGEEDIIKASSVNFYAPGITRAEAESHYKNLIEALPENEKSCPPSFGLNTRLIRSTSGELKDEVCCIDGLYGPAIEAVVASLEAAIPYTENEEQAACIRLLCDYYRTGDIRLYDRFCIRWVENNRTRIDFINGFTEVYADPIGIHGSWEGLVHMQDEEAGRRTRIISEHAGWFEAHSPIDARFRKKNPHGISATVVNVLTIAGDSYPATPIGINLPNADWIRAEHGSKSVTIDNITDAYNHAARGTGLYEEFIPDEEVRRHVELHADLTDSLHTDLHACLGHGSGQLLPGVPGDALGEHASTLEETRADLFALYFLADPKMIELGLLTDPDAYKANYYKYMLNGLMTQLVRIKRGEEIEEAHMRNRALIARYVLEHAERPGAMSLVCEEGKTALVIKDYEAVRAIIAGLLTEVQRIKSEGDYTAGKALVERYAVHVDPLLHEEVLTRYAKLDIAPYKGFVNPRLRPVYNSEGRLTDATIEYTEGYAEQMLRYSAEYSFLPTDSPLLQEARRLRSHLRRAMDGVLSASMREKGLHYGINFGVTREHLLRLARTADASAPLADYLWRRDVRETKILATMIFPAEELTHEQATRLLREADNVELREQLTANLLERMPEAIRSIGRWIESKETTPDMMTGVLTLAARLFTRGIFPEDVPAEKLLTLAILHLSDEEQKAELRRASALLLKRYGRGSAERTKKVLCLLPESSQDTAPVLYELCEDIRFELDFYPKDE

Compound | Kd [1] | kcat [2, 7] | kcat/Km ([2]; 26°C) | kcat/Km of PgDPP III, fold lower than human DPP III [2] | Relative hydrolysis rate (PgDPP III) | Km increase when C-terminal domain was removed [3, 8] | reduction in catalytic efficiency when C-terminal domain was removed [3, 8] | kcat/Km [3] | Km [3] | kcat [3] | other results
VVYPW [tynorphin] | 7.3 ± 0.83 µM | – | – | – | – | – | – | – | – | – | –
CC[C@H](C)[C@H](N)C(=O)N[C@H](C(=O)N[C@@H](Cc1ccc(O)cc1)C(=O)N1CCC[C@H]1C(=O)N[C@@H](Cc1c[nH]c2ccccc12)C(=O)O)C(C)C [IVYPW] | 9.35 ± 0.73 µM | – | – | – | – | – | – | – | – | – | –
N=C(N)NCCC[C@H](NC(=O)[C@@H](N)CCCNC(=N)N)C(=O)Nc1ccc2ccccc2c1 [Arg-Arg-2NA, Arg-Arg-2-naphthylamide] (H-Arg-Arg-βNA) | – | 0.75 ± 0.13 s⁻¹ | 773200 M⁻¹ s⁻¹ | 12 fold | 100% | 4 fold | 1050 fold | 732 M⁻¹ s⁻¹ | 4.37 ± 0.42 µM | 0.0032 ± 0.0005 s⁻¹ | Km decrease, PgDPP III vs yeast counterpart [2, 6]: 12 fold; kcat increase, PgDPP III vs yeast counterpart [2, 6]: 4.2 fold; kcat/Km of full-length PgDPP III, fold higher than yeast counterpart [2, 6]: 50 fold; Km and kcat compared to B. thetaiotaomicron DPP III (in words) ([2]; BtDPP III data ref 24): similarities in Km and kcat values; Km [2, 7]: 0.97 ± 0.16 µM; catalytic efficiency, Arg-Arg-2NA fold higher than Arg-Arg-AMC ([2]; full length PgDPP III): 6.8 fold; kcat, Arg-Arg-2NA fold higher than Arg-Arg-AMC ([2]; full length PgDPP III): 2.6 fold; substrate preference / hydrolysis rate (in words) (PgDPP III; listed as Arg2-2NA): preference for Arg2-2NA; substrate preference / hydrolysis rate (in words) (PgDPP III; listed as diarginyl-2NA): PgDPP III prefers diarginyl-2NA; specific activity of DPP III fragment, fold lower than full-length protein ([3]; hydrolysis of Arg2-2NA, vs full-length PgDPP III): 250 fold
CC[C@H](C)[C@H](NC(=O)[C@H](Cc1ccc(O)cc1)NC(=O)[C@@H](NC(=O)[C@H](CCCNC(=N)N)NC(=O)[C@@H](N)CC(=O)O)C(C)C)C(=O)N[C@@H](Cc1cnc[nH]1)C(=O)N1CCC[C@H]1C(=O)N[C@@H](Cc1ccccc1)C(=O)O [angiotensin II] | 0.9 ± 0.12 µM | – | – | – | – | – | – | – | – | – | –
Cc1cc(=O)oc2cc(NC(=O)[C@H](CCCNC(=N)N)NC(=O)[C@@H](N)CCCNC(=N)N)ccc12 [Arg-Arg-AMC, Arg-Arg-7-amido-4-methylcoumarin] (H-Arg-Arg-{AMC}) | – | 0.29 ± 0.11 s⁻¹ | 113280 M⁻¹ s⁻¹ | 26 fold | – | 4 fold | 470 fold | 241 M⁻¹ s⁻¹ | 9.97 ± 0.44 µM | 0.0024 ± 0.0014 s⁻¹ | activity among dipeptidyl-AMC substrates (in words) [4]: highest activity; hydrolysis by mutant cells (in words) [5]: defects in Arg-Arg-AMC hydrolysis; kcat reduction when C-terminal domain was removed [3, 8]: 120 fold
NC(N)=NCCCC(NC(=O)c1ccccc1)C(=O)Nc1ccc2ccccc2c1 (stereo not shown) [BANA] | – | – | – | – | 0% | – | – | – | – | – | –
